The values that follow come from patent US8722849B2, “Polypeptides” (Novo Nordisk A/S, priority 2011, dated 2014).

Values after ≈ are worked out from the molar mass of the structure shown. Read-outs that look alike come from different tables or passages of the source. Starred links: 1 amine or outer side, 2 acyl side, 3 side chain; linkers in the order of their positions; H or OH if unused. Positions of bridges follow the written chain, without caps; N, C: chain ends. Residues, ends and D or L forms follow the SMILES beside them. *: point of attachment. C20 diacid = O=C(O)CCCCCCCCCCCCCCCCCCC(=O)*; γGlu = O=C(O)[C@H](CCC(=O)[*:2])N[*:1] Bounds are passed on as bounds.

Usually EC50 stands for the concentration needed to bring the measured effect to its halfway point. The solubility is how much of the substance goes into solution per volume.

The nature of data set [1]: Assay (III) ThT fibrillation assay for physical stability. Type of data set: physicochemical. Particulars: ThT fibrillation assay. In short, it runs like this:
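Freshly prepared formulations, pH-adjusted, with 1 μM ThT; four or eight replicates incubated at 37 °C under 960 rpm orbital shaking. Fluorescence (ex 444/em 485 nm) read every 20 min; […]. Peptide concentration measured by RP-HPLC before and after the run.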

The target in data set [2] is T1, human calcitonin receptor (Homo sapiens, UniProt P30988).
T1 construct: expressed in transfected cells; host or cells: BHK570
T1 sequence (P30988 25-474): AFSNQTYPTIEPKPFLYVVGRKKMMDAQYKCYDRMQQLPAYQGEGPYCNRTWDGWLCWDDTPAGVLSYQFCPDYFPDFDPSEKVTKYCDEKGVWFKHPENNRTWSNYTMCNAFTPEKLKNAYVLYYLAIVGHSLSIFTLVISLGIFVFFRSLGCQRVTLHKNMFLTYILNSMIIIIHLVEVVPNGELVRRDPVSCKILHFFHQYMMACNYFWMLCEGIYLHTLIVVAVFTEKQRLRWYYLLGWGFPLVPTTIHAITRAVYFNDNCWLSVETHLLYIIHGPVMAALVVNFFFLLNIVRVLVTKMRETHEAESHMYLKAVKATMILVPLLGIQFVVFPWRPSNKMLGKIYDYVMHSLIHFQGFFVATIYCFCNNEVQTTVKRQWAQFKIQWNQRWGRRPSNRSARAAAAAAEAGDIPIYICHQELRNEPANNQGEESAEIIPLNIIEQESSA
As to the kind of experiment: Assay (II)a functional CRE-luciferase assay, human calcitonin receptor. In kind it is cell-based. To be noted: Table 7; human calcitonin (CTa) receptor.

The target of data set [3] is T2, human amylin receptor (amylin 3(a) receptor: human calcitonin receptor + RAMP-3) (Homo sapiens, UniProt O60896+P30988).
T2 construct: expressed in transfected cells; host or cells: BHK570
T2 sequence (P30988 25-474): T1 sequence (P30988 25-474)
T2 sequence (O60896 24-148 partner): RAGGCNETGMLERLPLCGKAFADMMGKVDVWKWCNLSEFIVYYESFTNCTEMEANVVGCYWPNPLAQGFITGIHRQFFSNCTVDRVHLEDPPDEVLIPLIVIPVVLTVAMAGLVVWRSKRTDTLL
Briefly: Assay (II)a functional CRE-luciferase assay, human amylin receptor. Type of data set: cell-based. To be noted: Table 2; BHK amylin 3(a)-receptor/CRE-luc cells.

Data set [4] in a line: Assay (IV) determination of solubility. Type of data set: physicochemical. Put shortly:
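Eight 100 mM buffers (glycylglycine pH 3.0–5.0, bistrispropane pH 6.0–8.0) each received an equal volume of polypeptide dissolved in water at ~500 nmol/ml. Soluble polypeptide was measured by HPLC following 18 hours at room temperature and centrifugation.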

Where [5] appears, read: bistrispropane buffer, pH 6, pH 6.0, read-out: Solubility pH 6.0.
[6] abbreviates: bistrispropane buffer, pH 6.5, pH 6.5, read-out: Solubility pH 6.5.
The mark [7] stands for this setting: bistrispropane buffer, pH 7, pH 7.0, 18 hours at room temperature, Table 3, read-out: Solubility pH 7.0.
Setting [8] is: bistrispropane buffer, pH 7, pH 7.0, read-out: Solubility pH 7.0.
Setting [9] is: bistrispropane buffer, pH 7.5, pH 7.5, read-out: Solubility pH 7.5.
Where [10] appears, read: bistrispropane buffer, pH 8, pH 8.0, read-out: Solubility pH 8.0.
[11] abbreviates: glycylglycine buffer, pH 3, pH 3.0, read-out: Solubility pH 3.0.
Where [12] appears, read: glycylglycine buffer, pH 4, pH 4.0, 18 hours at room temperature, Table 2, read-out: Solubility pH 4.0.
The mark [13] stands for this setting: glycylglycine buffer, pH 4, pH 4.0, read-out: Solubility pH 4.0.
Where [14] appears, read: glycylglycine buffer, pH 5, pH 5.0, read-out: Solubility pH 5.0.

For `CC[C@H](C)[C@H](NC(=O)[C@@H]1CCCN1C(=O)CNC(=O)[C@H](Cc1ccccc1)NC(=O)[C@H](CC(N)=O)NC(=O)[C@H](CC(N)=O)NC(=O)[C@H](CO)NC(=O)[C@H](CO)NC(=O)[C@H](Cc1c[nH]cn1)NC(=O)[C@H](Cc1c[nH]cn1)NC(=O)[C@H](CC(C)C)NC(=O)[C@H](Cc1ccccc1)NC(=O)[C@H](CCC(=O)O)NC(=O)[C@H](C)NC(=O)[C@H](CC(C)C)NC(=O)[C@H](CCCNC(=N)N)NC(=O)[C@H](CCC(N)=O)NC(=O)[C@@H](NC(=O)[C@H](C)NC(=O)[C@@H]1CSSC[C@H](NC(=O)[C@H](CCC(=O)O)NC(=O)[C@H](CCCNC(=N)N)NC(=O)[C@H](CCC(=O)O)NC(=O)[C@H](CCC(=O)O)NC(=O)CCCCCCCCCCCCCCCCCCC(=O)O)C(=O)N[C@@H](CC(N)=O)C(=O)N[C@@H]([C@@H](C)O)C(=O)N[C@@H](C)C(=O)N[C@@H]([C@@H](C)O)C(=O)N1)[C@@H](C)O)C(=O)N[C@@H](CC(C)C)C(=O)N1CCC[C@H]1C(=O)N1CCC[C@H]1C(=O)N[C@H](C(=O)N[C@@H](CC(N)=O)C(=O)N[C@H](C(=O)NCC(=O)N[C@@H](CO)C(=O)N[C@@H](CC(N)=O)C(=O)N[C@H](C(=O)N1CCC[C@H]1C(N)=O)[C@@H](C)O)C(C)C)[C@@H](C)O` [Example 125, N-alpha-(19-carboxynonadecanoyl)-Glu-Glu-Arg-[Glu1,Glu14,His17,Pro37]-pramlintide] ({C20 diacid}-EERECNTATCATQRLAEFLHHSSNNFGPILPPTNVGSNTP-NH2; disulfide 5-10 (inferred); C-terminus assumed), the “ThT pH 4.0 lag time (h)” value in data set [1] came to 19 h. In addition, the EC50 in data set [2] is 0.443 nM; in data set [3], 0.288 nM. In addition, the solubility at 18 h in data set [4] (setting [5]), in data set [4] (setting [6]), in data set [4] (setting [7]), in data set [4] (setting [8]), in data set [4] (setting [9]) and in data set [4] (setting [10]) was more than 200 µM in each case. In addition, the solubility at 18 h in data set [4] (setting [11]), in data set [4] (setting [12]), in data set [4] (setting [13]) and in data set [4] (setting [14]) was more than 200 µM throughout.
As for `CC[C@H](C)[C@H](NC(=O)[C@@H]1CCCN1C(=O)CNC(=O)[C@H](Cc1ccccc1)NC(=O)[C@H](CC(N)=O)NC(=O)[C@H](CC(=O)O)NC(=O)[C@H](CO)NC(=O)[C@H](CO)NC(=O)[C@H](Cc1c[nH]cn1)NC(=O)[C@H](Cc1c[nH]cn1)NC(=O)[C@H](CC(C)C)NC(=O)[C@H](Cc1ccccc1)NC(=O)[C@H](CCC(=O)O)NC(=O)[C@H](C)NC(=O)[C@H](CC(C)C)NC(=O)[C@H](CCCNC(=N)N)NC(=O)[C@H](CCC(N)=O)NC(=O)[C@@H](NC(=O)[C@H](C)NC(=O)[C@@H]1CSSC[C@H](NC(=O)[C@H](CCCCN)NC(=O)CC[C@H](NC(=O)CCCCCCCCCCCCCCCCCCC(=O)O)C(=O)O)C(=O)N[C@@H](CC(N)=O)C(=O)N[C@@H]([C@@H](C)O)C(=O)N[C@@H](C)C(=O)N[C@@H]([C@@H](C)O)C(=O)N1)[C@@H](C)O)C(=O)N[C@@H](CC(C)C)C(=O)N1CCC[C@H]1C(=O)N1CCC[C@H]1C(=O)N[C@H](C(=O)N[C@@H](CC(N)=O)C(=O)N[C@H](C(=O)NCC(=O)N[C@@H](CO)C(=O)N[C@@H](Cc1c[nH]cn1)C(=O)N[C@H](C(=O)N[C@@H](Cc1ccc(O)cc1)C(N)=O)[C@@H](C)O)C(C)C)[C@@H](C)O` [Example 128, N-alpha-[(S)-4-Carboxy-4-(19-carboxynonadecanoylamino)butyryl]-[Glu14,His17,Asp21,His35]-pramlintide] ({C20 diacid-γGlu}-KCNTATCATQRLAEFLHHSSDNFGPILPPTNVGSHTY-NH2; disulfide 2-7 (inferred); C-terminus assumed), in data set [1], the “ThT pH 4.0 lag time” value is given as more than 45 h. Further, in data set [1], the “ThT pH 4.0 lag time (h)” value is given as more than 45 h. Moreover, the results for the EC50 in data set [2] and in data set [3] were 0.266 nM and 0.291 nM, respectively. Moreover, the solubility at 18 h in data set [4] (pH 3.0, read-out: Solubility pH 3.0) is more than 200 µM; in data set [4] (pH 4.0, 18 hours at room temperature, Table 2, read-out: Solubility pH 4.0), more than 200 µM; in data set [4] (pH 4.0, read-out: Solubility pH 4.0), more than 200 µM; in data set [4] (pH 5.0, read-out: Solubility pH 5.0), more than 200 µM; in data set [4] (pH 6.0, read-out: Solubility pH 6.0), more than 200 µM; in data set [4] (pH 6.5, read-out: Solubility pH 6.5) it was 114 µM (≈ 511 µg/mL). The solubility at 18 h is 140 µM (≈ 627 µg/mL) in data set [4] (pH 7.0, 18 hours at room temperature, Table 3, read-out: Solubility pH 7.0); 140 µM (≈ 627 µg/mL) in data set [4] (pH 7.0, read-out: Solubility pH 7.0); more than 200 µM in data set [4] (pH 7.5, read-out: Solubility pH 7.5); more than 200 µM in data set [4] (pH 8.0, read-out: Solubility pH 8.0).
For the compound `CC[C@H](C)[C@H](NC(=O)[C@@H]1CCCN1C(=O)CNC(=O)[C@H](Cc1ccccc1)NC(=O)[C@H](CC(N)=O)NC(=O)[C@H](CCC(N)=O)NC(=O)[C@H](CO)NC(=O)[C@H](CO)NC(=O)[C@H](Cc1c[nH]cn1)NC(=O)[C@H](Cc1c[nH]cn1)NC(=O)[C@H](CC(C)C)NC(=O)[C@H](Cc1ccccc1)NC(=O)[C@H](CCC(=O)O)NC(=O)[C@H](C)NC(=O)[C@H](CC(C)C)NC(=O)[C@H](CCCNC(=N)N)NC(=O)[C@H](CCC(N)=O)NC(=O)[C@@H](NC(=O)[C@H](C)NC(=O)[C@@H]1CSSC[C@H](NC(=O)[C@H](CCCCN)NC(=O)[C@H](CCC(=O)O)NC(=O)CC[C@H](NC(=O)CCCCCCCCCCCCCCCCCCC(=O)O)C(=O)O)C(=O)N[C@@H](CC(N)=O)C(=O)N[C@@H]([C@@H](C)O)C(=O)N[C@@H](C)C(=O)N[C@@H]([C@@H](C)O)C(=O)N1)[C@@H](C)O)C(=O)N[C@@H](CC(C)C)C(=O)N1CCC[C@H]1C(=O)N1CCC[C@H]1C(=O)N[C@H](C(=O)N[C@@H](CC(N)=O)C(=O)N[C@H](C(=O)NCC(=O)N[C@@H](CO)C(=O)N[C@@H](Cc1c[nH]cn1)C(=O)N[C@H](C(=O)N[C@@H](Cc1ccc(O)cc1)C(N)=O)[C@@H](C)O)C(C)C)[C@@H](C)O` [Example 129, N-alpha-[(S)-4-Carboxy-4-(19-carboxynonadecanoylamino)butyryl]-Glu-[Glu14,His17,Gln21,His35]-pramlintide] ({C20 diacid-γGlu}-EKCNTATCATQRLAEFLHHSSQNFGPILPPTNVGSHTY-NH2; disulfide 3-8 (inferred); C-terminus assumed), the “ThT pH 4.0 lag time (h)” value in data set [1] stood at 24 h. For the same compound, the EC50 in data set [2] turned out to be 0.247 nM; in data set [3] it was 0.391 nM. Moreover, the solubility at 18 h was more than 200 µM in data set [4] (setting [5]); 194 µM (≈ 897 µg/mL) in data set [4] (setting [6]); more than 200 µM in data set [4] (setting [7]); more than 200 µM in data set [4] (setting [8]); more than 200 µM in data set [4] (setting [9]); more than 200 µM in data set [4] (setting [10]). The solubility at 18 h in data set [4] (setting [11]), in data set [4] (setting [12]), in data set [4] (setting [13]) and in data set [4] (setting [14]) was more than 200 µM throughout.
